Test results from US5175320A, “Fluorinated bile acid derivatives, processes for the preparation thereof and pharmaceutical compositions containing them” (Giuliani S.p.A., priority 1989, dated 1992).
≈ marks a conversion by molar mass, not a printed value. Entries after “also recorded” stand apart in the source; their conditions may differ.

Experiments:
[1] = water solubility (of the protonated forms); format: physicochemical
Protocol: 6-FCDCA has been submitted to a series of physico-chemical determinations following a previously described protocol. Particularly, the lypophilicity, detergency, water solubility and pKa were measured. | rK' = relative values Water solubility of the protonated forms Data on water solubility are reported on the enclosed table 1.

[2] = detergency, critical micellar concentration; format: physicochemical; conditions: for CMC: Table 1
Protocol: (§1) 6-FCDCA has been submitted to a series of physico-chemical determinations following a previously described protocol. Particularly, the lypophilicity, detergency, water solubility and pKa were measured.

[3] = lypophilicity by C/18 reverse phase HPLC; format: physicochemical; conditions: for rK' C-18: rK' = relative values, C-18 reverse phase HPLC
Protocol: as §1

pKa = format: physicochemical
Text: 6-FCDCA has been submitted to a series of physico-chemical determinations following a previously described protocol.

human stools = format: in vitro ADME

Row | Structure (SMILES) | water solubility [1] [µmol] | S (water solubility) ([1]; protonated forms, Table 1) [µmol/L] | CMC [2] [mmol/1] | rK' C-18 [3] | water solubility compared with CDCA [1] | solubility ([1]; water) [µM] | critical micellar concentration [2] [mmol/L] | lypophilicity compared with natural analogues ([3]; C/18 reverse phase HPLC, result in words) | pKa (pKa) | protection of the 7-hydroxy group from oxidation and 7-dehydroxylation (human stools) | stability to intestinal bacteria compared with CDCA (human stools)
1 | C[C@H](CCC(=O)O)[C@H]1CC[C@H]2[C@@H]3[C@H](O)C[C@@H]4C[C@H](O)CC[C@]4(C)[C@H]3CC[C@]12C [CDCA, chenodeoxycholic, reference compound] | 30 | 30 | 9 | 0.89 | – | – | – | – | – | – | –
2 | C[C@H](CCC(=O)O)[C@H]1CC[C@H]2[C@@H]3[C@H](O)C(F)[C@H]4C[C@H](O)CC[C@]4(C)[C@H]3CC[C@]12C (stereo partly drawn) [Example 6-FCDCA, 3α,7α-Dihydroxy-6-fluoro-5α-cholan-24-oic acid] | – | – | 10 | 0.6 | slightly higher than that of CDCA | 80 (≈ 32.8 µg/mL) | 10 | lower when compared with CDCA; also recorded: intermediate between CDCA and UDCA; also recorded: less lypohilic than CDCA | 5 | efficaciously protects the hydroxy group in 7-position to oxidation and 7-dehydroxylation | more stable to intestinal bacteria
3 | C[C@H](CCC(=O)O)[C@H]1CC[C@H]2[C@@H]3[C@@H](O)C[C@@H]4C[C@H](O)CC[C@]4(C)[C@H]3CC[C@]12C [UDCA, ursodeoxycholic, reference compound] | – | – | – | 0.4 | – | – | – | – | – | – | –
